These results are taken from patent US7491707B1, “Synthetic lipid-a-analogs and uses thereof” (Biomira, Inc., priority 1999, dated 2009).

Entries after “also recorded” stand apart in the source; their conditions may differ.

The subject of one series is T-cell. Nature of the series: T-cell proliferation (3H thymidine incorporation) of lymph node lymphocytes from mice immunized with MUC1-based liposomal vaccine adjuvanted with Lipid-A analog. The format is in vivo, C57-Black mice. The note with it: for T-cell-Proliferation (CPM): s.c. liposomal vaccine 40 μg BP1-148 + 20 μg Lipid-A analog per dose, nine days after injection, boosting antigen BP1-151; for T-cell blastogenesis: in words, liposomal vaccine formulations in mice, FIG. 31-FIG. 33. As to the method: (§1) Typically, the liposomal formulation was composed of 400 μg of MUC1-based lipopeptide BP1-148, H2N-[…](Pal)G-OH, 200 μg of Lipid-A analog, 6.94 mg of cholesterol, 1.46 mg of dimyristoyl phosphatidylglycerol ([…]) and 11.62 mg of dipalmitoyl phosphatidylcholine (DPPC) per 1 ml of saline (0.9% NaCl solution).
(§2) The liposomal constructs were formulated by first dissolving the phospholipids, cholesterol and Lipid A analog in tert-butanol at about 53° C. Lipopeptide and water (5%, v/v) were then added to the tert-butanol solution. The resulting clear 95% tert-butanol solution was injected into about 4 volumes of rapidly stirred water at about 50° C., using a glass syringe with an 18-gauge needle. The small unilamellar vesicles (SUV) formed in this process were cooled, sterilized by filtration through a 0.22 μm membrane filter, filled into vials and lyophilized. The dry powder was re-hydrated with sterile saline before injection, resulting in the formation of multilamellar large vesicles (MLV). The liposomes formed are used to immunize mice.
(§3) Groups of C57-Black mice were immunized subcutaneously with the liposomal vaccine containing 40 μg of MUC1-based lipopeptide BP1-148 (FIG. 34), which has the peptide sequence of H2N-[…](Pal) G-OH, and 20 μg of Lipid-A analog per dose. Nine days after vaccine injection mice were sacrificed and lymphocytes were taken from the draining lymph nodes (local response) or from the spleens (systemic response) to determine the immune response in each group. The lymphocytes taken from immunized mice were incubated in in vitro cultures in the presence of MUC1-based boosting antigen BP1-151, which has the peptide sequence H2N-[…]-OH.
T-cell proliferation was evaluated using a standard ^3H thymidine incorporation assay. Briefly, nylon wool passed inguinal lymph node lymphocytes from each mouse were added to a culture containing 106 native mitomycin C treated syngeneic splenocytes, which serves as antigen presenting cells (APCs). To each well 20 μg of MUC1-based boosting peptide BP1-151, H2N-[…]-OH (single letter amino acid code, Table 8), was added for positive control; and cultures containing no antigen or peptide BP1-72, which has the peptide sequence H2N-[…]-OH, were used as negative control. The culture was incubated for 72 h in a total volume of 250 μl well, followed by adding 1 μCi of ^3H-thymidine in a volume of 50 μl. The plates were incubated for an additional 18-20 h. Cells were harvested and [^3H]dTh incorporation was measured by liquid scintillation counter. T-cell proliferation results corresponding to various liposomal vaccines adjuvanted, with different Lipid-A analogs are summarized in Tables 1-Table 3 and FIG. 31-FIG. 33.

The next series relates to Interferon-gamma (IFN-γ). Nature of the series: Interferon-gamma (IFN-γ) production in cell culture supernatants by ELISA, lymphocytes of mice immunized with adjuvanted MUC1 liposomal vaccine. The note with it: for Interferon-gamma (IFN-γ, pg/ml): s.c. liposomal vaccine 40 μg BP1-148 + 20 μg Lipid-A analog per dose, nine days after injection; for interferon-gamma production: in words, liposomal vaccine formulations in mice, FIG. 31-FIG. 33. It counts as in vivo, C57-Black mice. As to the method: as §1, §2, §3
Interferon-gamma (IFN-γ) levels were determined in the cell culture supernatants using enzyme-linked immunoabsorbent assay (ELISA). 96-Well plates were coated with 50 μl of catcher Mabs in 50 μl of R4.6AZ at 37° C. for 30 min. The plates were then washed and incubated with test samples for 45 min. After two washes the second biotinylated antibody, XMG1.2 was added. After washing, peroxidase-conjugated streptavidin was added and incubated again for 30 min. Finally, 100 μl of horseradish peroxidase (HRPO) substrate solution was added. The optical density was measured with a Thermomax ELISA reader at 405 nm wavelength in kinetic mode for 10 min. The interferon-gamma (IFN-γ) levels corresponding to various Lipid-A analogs are shown in Table 1-Table 3 and FIG. 31-FIG. 33.
In general terms: ELISA stands for enzyme-linked immunosorbent assay.

A short description of series [1]: Solubility of Lipid-A analogs for incorporation into liposomes. The format is physicochemical. The conditions noted are these: in words; given as cause of poor incorporation into liposomes.
A further series concerns C57-Black mice. Description: Lethal toxicity of Lipid-A analogs injected i.p. followed by Actinomycin D. It counts as in vivo. The conditions noted are these: for No. Survived/No. Tested (+24 h): Actinomycin D +. As to the method:
Synthetic Lipid-A analog 86 and the Natural Lipid-A (see Example 95 for more detail) were tested for their lethal toxicity. Test methods and results are summarized below (Table 4) • a) Preparation of Lipid-A analog solution: 1 mg of Lipid-A analog was dissolved in 1 ml of 20% DMSO and diluted with saline to obtain 50 μg, 10 μg and 2 μg doses in 0.5 ml. • b) Preparation of Actinomycin D: 5 mg of Actinomycin D was dissolved in 1 ml of ethanol and diluted with saline to obtain a dose at 550 μg/kg in 0.5 ml. • c) Procedure: Various doses of Lipid-A analogs or solvent as control were injected intraperitoneally (i.p.) into C57-Black mice. Twenty minutes later all groups of mice were injected with 500 μl of Actinomycin D. Mice were then observed for mortality or any other symptoms of toxicity.

Series [2] concerns immune response to MUC1-based lipopeptide BP1-148. Nature of the series: Adjuvanticity of Lipid-A analogs in liposomal vaccine with MUC1 lipopeptide BP1-148 (T-cell blastogenesis and IFN-γ production). The note with it: in words. The format is in vivo, mice.
Description: Liposome formulations have been used to evaluate the adjuvant properties of various synthetic Lipid-A structures and the immune responses to a synthetic lipopeptide antigen BP-148, H2N-[…](Pal)G-OH (FIG. 34), a modified 25-amino-acid sequence derived from tumor-associated MUC1 mucin. The commercially available Lipid-A product, which is currently under clinical evaluation as an adjuvant for vaccine programs, was used for comparison. The natural Lipid-A product, purchased from AVANTI, contained a mixture of Lipid-A analogs extracted from Salmonella bacterial cell wall and is designated as Natural Lipid-A in this invention.
Thus, the liposomal formulations containing the synthetic lipopeptide antigen, BP1-148, and Lipid-A analogs 33, 48, 54, 58, 70, 77, 86, 94, 102, 104 or Natural Lipid-A, were used to immunize mice to measure their immune response in terms of T-cell blastogenesis and interferon-gamma (IFN-γ) production. The compounds were tested in three groups at different time and their preliminary results are shown separately in FIGS. 31-33. As the variations are attributed to different factors such as animal groups and experimental factors, the data from different groups will not be compared.
as §3

For series [3] the following is noted: literature bioassays; cited from earlier work.

For the compound `CCCCCCCCCCCCCC(=O)N[C@@H](CC(=O)N[C@H]1C(O)O[C@H](CO)[C@@H](OP(=O)(O)O)[C@@H]1OC(=O)CCCCCCCCCCCCC)C(=O)NCCCCCCCCC` (stereo partly drawn) [Compound 33, 2-Deoxy-4-O-phosphono-2-[(3S)-3-tetradecanamido-4-nonylamino-4-oxo-butanamido]-3-O-tetradecanoyl-α/β-D-glucopyranose], the “T-cell-Proliferation (CPM)” value with T-cell (Table 1, first test group) was 822 CPM. Moreover, the T-cell blastogenesis result with T-cell was “inactive”. The “Interferon-gamma (IFN-γ, pg/ml)” value with Interferon-gamma (IFN-γ) (Table 1, first test group) came out at 0 pg/mL. Further, the interferon-gamma production entry with Interferon-gamma (IFN-γ) was “inactive”. Further, the solubility entry in series [1] is reported as “poor solubility”.
For `CCCCCCCCCCCCCC(=O)N[C@@H](CC(=O)N[C@H]1[C@H](OC[C@H]2OC(O)[C@H](NC(=O)C[C@@H](CCCCCCCCCCC)OC(=O)CCCCCCCCCCCCC)[C@@H](O)[C@@H]2O)O[C@H](CO)[C@@H](OP(=O)(O)O)[C@@H]1OC(=O)C[C@@H](CCCCCCCCCCC)OC(=O)CCCCCCCCCCCCC)C(=O)NCCCCCCCCC` (stereo partly drawn) [Compound 58, 2-Deoxy-6-O-{2-deoxy-2-[(3S)-3-tetradecanamido-4-nonylamino-4-oxo-butanamido]-4-O-phosphono-3-O-[(3R)-3-tetradecanoyloxytetradecanoyl]-β-D-glucopyranosyl}-2-[(3R)-3-tetradecanoyloxytetradecanamido]-α/β-D-glucopyranose], the “T-cell-Proliferation (CPM)” value with T-cell (Table 1, first test group) was 686 CPM. The T-cell blastogenesis entry in the series with T-cell was “inactive”. Further, the “Interferon-gamma (IFN-γ, pg/ml)” value in the series on Interferon-gamma (IFN-γ) (Table 1, first test group) came to 0 pg/mL. Further, the interferon-gamma production entry in the series on Interferon-gamma (IFN-γ) is “inactive”. The solubility entry in series [1] is “poor solubility”.
In the case of `CCCCCCCCCCCCCC(=O)N[C@@H](CC(=O)N[C@H]1[C@H](OC[C@H]2OC(O)[C@H](NC(=O)C[C@@H](CCCCCCCCCCC)OC(=O)CCCCCCCCCCCCC)[C@@H](OC(=O)C[C@H](O)CCCCCCCCCCC)[C@@H]2O)O[C@H](CO)[C@@H](OP(=O)(O)O)[C@@H]1OC(=O)C[C@@H](CCCCCCCCCCC)OC(=O)CCCCCCCCCCCCC)C(=O)NCCCCCCCCC` (stereo partly drawn) [Compound 77, 2-Deoxy-6-O-{2-deoxy-2-[(3S)-3-tetradecanamido-4-nonylamino-4-oxo-butanamido]-4-O-phosphono-3-O-[(3R)-3-tetradecanoyloxytetradecanoyl]-β-D-glucopyranosyl}-3-O-[(3R)-3-hydroxytetradecanoyl]-2-[(3R)-3-tetradecanoyloxytetradecanamido]-α/β-D-glucopyranose], the “T-cell-Proliferation (CPM)” value with T-cell (Table 2, second test group) was 2565 CPM. Moreover, the T-cell blastogenesis entry with T-cell is “inactive”. Besides, in the series on Interferon-gamma (IFN-γ) (Table 2, second test group), the “Interferon-gamma (IFN-γ, pg/ml)” value is 0 pg/mL. The interferon-gamma production entry in the series with Interferon-gamma (IFN-γ) was “inactive”. The solubility entry in series [1] is “poor solubility”.
`CCCCCCCCCCCCCC(=O)O[C@H](CCCCCCCCCCC)CC(=O)N[C@H]1[C@H](OC[C@H]2OC(O)[C@H](NC(=O)C[C@@H](CCCCCCCCCCC)OC(=O)CCCCCCCCCCCCC)[C@@H](OC(=O)C[C@H](O)CCCCCCCCCCC)[C@@H]2O)O[C@H](CO)[C@@H](OP(=O)(O)O)[C@@H]1OC(=O)C[C@@H](CCCCCCCCCCC)OC(=O)CCCCCCCCCCCCC` (stereo partly drawn) [Compound 86, 2-Deoxy-6-O-{2-deoxy-4-O-phosphono-2-[(3R)-3-tetradecanoyloxytetradecanamido]-3-O-[(3R)-3-tetradecanoyloxytetradecanoyl]-β-D-glucopyranosyl}-3-O-[(3R)-3-hydroxytetradecanoyl]-2-[(3R)-3-tetradecanoyloxytetradecanamido]-α/β-D-glucopyranose]: the “T-cell-Proliferation (CPM)” value is 52382 CPM in the series with T-cell (Table 2, second test group) and 15486 CPM with T-cell (Table 3, third test group). The T-cell blastogenesis result with T-cell was “significant T-cell blastogenesis”. For the same compound, the “Interferon-gamma (IFN-γ, pg/ml)” value in the series with Interferon-gamma (IFN-γ) (Table 2, second test group) turned out to be 36461 pg/mL; in the series with Interferon-gamma (IFN-γ) (Table 3, third test group), 17697 pg/mL. Also, the interferon-gamma production entry in the series with Interferon-gamma (IFN-γ) is listed as “high levels of interferon-gamma”. Further, in the series on C57-Black mice (all three doses (50 μg, 10 μg, 2 μg) i.p., experiment terminated 4 days later), the “survival of the study” value is “survived the study”. The “No. Survived/No. Tested (+24 h)” value in the series on C57-Black mice (dose 2/500 μg/μl i.p.), in the series with C57-Black mice (dose 10/500 μg/μl i.p.) and in the series on C57-Black mice (dose 50/500 μg/μl i.p.) was 3/3 throughout. Also, in the series on C57-Black mice (in words, in vivo, C57-Black mice, Actinomycin D), the “toxicity compared to Natural Lipid-A product from Salmonella” value is reported as “much less toxic; also recorded: much lower”. In series [2] (liposomal formulations with BP1-148 in mice, FIGS. 31-33), the “adjuvant activity compared to Natural Lipid-A (Lipid-A preparation of bacterial origin)” value was “as effective”. Also, the “activity compared to the other synthetic Lipid-A analogs” value in series [2] (second group (FIG. 32)) was “slightly more active”.
Regarding monophosphoryl Lipid-A, the “potency on a molar basis in eliciting toxic and pyrogenic responses, compared to diphosphoryl Lipid-A” value in series [3] is listed as 1000 times less potent.
